According to ChEMBL document CHEMBL4507293 (2021):

Experiments:
[1] = biological target: RAC-beta serine/threonine-protein kinase (Homo sapiens) (UniProt P31751); conditions: Compound concentration 100.0 nM
[2] = biological target: Serine/threonine-protein kinase B-raf (Homo sapiens) (UniProt P15056); conditions: Compound concentration 100.0 nM
[3] = biological target: Cyclin-dependent kinase-like 3 (Homo sapiens) (UniProt Q8IVW4); conditions: Compound concentration 100.0 nM
[4] = biological target: Tyrosine-protein kinase CSK (Homo sapiens) (UniProt P41240); conditions: Compound concentration 100.0 nM
[5] = biological target: Megakaryocyte-associated tyrosine-protein kinase (Homo sapiens) (UniProt P42679); conditions: Compound concentration 100.0 nM
[6] = biological target: Serine/threonine-protein kinase DCLK2 (Homo sapiens) (UniProt Q8N568); conditions: Compound concentration 100.0 nM
[7] = biological target: Mitogen-activated protein kinase 3 (Homo sapiens) (UniProt P27361); conditions: Compound concentration 100.0 nM
[8] = biological target: Serine/threonine-protein kinase haspin (Homo sapiens) (UniProt Q8TF76); conditions: Compound concentration 100.0 nM
[9] = biological target: Tyrosine-protein kinase JAK3 (Homo sapiens) (UniProt P52333); conditions: Compound concentration 100.0 nM
[10] = biological target: Mitogen-activated protein kinase kinase kinase kinase 3 (Homo sapiens) (UniProt Q8IVH8); conditions: Compound concentration 100.0 nM
[11] = biological target: MAP/microtubule affinity-regulating kinase 4 (Homo sapiens) (UniProt Q96L34); conditions: Compound concentration 100.0 nM
[12] = biological target: Serine/threonine-protein kinase 24 (Homo sapiens) (UniProt Q9Y6E0); conditions: Compound concentration 100.0 nM
[13] = biological target: Serine/threonine-protein kinase 38 (Homo sapiens) (UniProt Q15208); conditions: Compound concentration 100.0 nM
[14] = biological target: Serine/threonine-protein kinase Nek10 (Homo sapiens) (UniProt Q6ZWH5); conditions: Compound concentration 100.0 nM
[15] = biological target: Serine/threonine-protein kinase Nek7 (Homo sapiens) (UniProt Q8TDX7); conditions: Compound concentration 100.0 nM
[16] = biological target: Cyclin-dependent kinase 18 (Homo sapiens) (UniProt Q07002); conditions: Compound concentration 100.0 nM
[17] = system: Phosphatidylinositol 4,5-bisphosphate 3-kinase catalytic subunit alpha isoform (Homo sapiens), P42336 [M1043I]; conditions: Compound concentration 100.0 nM
[18] = system: Phosphatidylinositol 4,5-bisphosphate 3-kinase catalytic subunit alpha isoform (Homo sapiens), P42336 [Q546K]; conditions: Compound concentration 100.0 nM
[19] = biological target: Phosphatidylinositol 4-kinase beta (Homo sapiens) (UniProt Q9UBF8); conditions: Compound concentration 100.0 nM
[20] = biological target: cAMP-dependent protein kinase catalytic subunit alpha (Homo sapiens) (UniProt P17612); conditions: Compound concentration 100.0 nM
[21] = biological target: cAMP-dependent protein kinase catalytic subunit PRKX (Homo sapiens) (UniProt P51817); conditions: Compound concentration 100.0 nM
[22] = biological target: Receptor-interacting serine/threonine-protein kinase 2 (Homo sapiens) (UniProt O43353); conditions: Compound concentration 100.0 nM
[23] = biological target: Proto-oncogene tyrosine-protein kinase Src (Homo sapiens) (UniProt P12931); conditions: Compound concentration 100.0 nM
[24] = biological target: SRSF protein kinase 3 (Homo sapiens) (UniProt Q9UPE1); conditions: Compound concentration 100.0 nM
[25] = biological target: Serine/threonine-protein kinase TBK1 (Homo sapiens) (UniProt Q9UHD2); conditions: Compound concentration 100.0 nM
[26] = biological target: Non-receptor tyrosine-protein kinase TYK2 (Homo sapiens) (UniProt P29597); conditions: Compound concentration 100.0 nM
[27] = biological target: Tyrosine-protein kinase receptor TYRO3 (Homo sapiens) (UniProt Q06418); conditions: Compound concentration 100.0 nM
[28] = biological target: Serine/threonine-protein kinase ULK3 (Homo sapiens) (UniProt Q6PHR2); conditions: Compound concentration 100.0 nM
[29] = biological target: Serine/threonine-protein kinase VRK2 (Homo sapiens) (UniProt Q86Y07); conditions: Compound concentration 100.0 nM
[30] = biological target: T1, 5-hydroxytryptamine receptor 2C (Homo sapiens) (UniProt P28335); conditions: Compound concentration 10.0 uM
T1 sequence (whole entry): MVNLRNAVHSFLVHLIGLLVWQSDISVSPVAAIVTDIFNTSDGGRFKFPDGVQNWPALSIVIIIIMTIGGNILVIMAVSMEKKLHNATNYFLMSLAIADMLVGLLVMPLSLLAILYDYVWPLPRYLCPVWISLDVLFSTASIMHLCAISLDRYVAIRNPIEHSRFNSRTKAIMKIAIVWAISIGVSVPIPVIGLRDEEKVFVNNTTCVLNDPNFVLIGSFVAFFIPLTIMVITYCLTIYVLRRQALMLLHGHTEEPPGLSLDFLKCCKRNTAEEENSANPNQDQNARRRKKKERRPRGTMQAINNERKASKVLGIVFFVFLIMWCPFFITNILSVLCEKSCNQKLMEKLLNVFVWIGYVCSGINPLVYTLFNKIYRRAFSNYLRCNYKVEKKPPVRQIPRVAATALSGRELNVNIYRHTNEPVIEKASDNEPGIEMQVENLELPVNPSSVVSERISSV

[31] = biological target: T2, Muscarinic acetylcholine receptor M4 (Homo sapiens) (UniProt P08173); conditions: Compound concentration 10.0 uM
T2 sequence (whole entry): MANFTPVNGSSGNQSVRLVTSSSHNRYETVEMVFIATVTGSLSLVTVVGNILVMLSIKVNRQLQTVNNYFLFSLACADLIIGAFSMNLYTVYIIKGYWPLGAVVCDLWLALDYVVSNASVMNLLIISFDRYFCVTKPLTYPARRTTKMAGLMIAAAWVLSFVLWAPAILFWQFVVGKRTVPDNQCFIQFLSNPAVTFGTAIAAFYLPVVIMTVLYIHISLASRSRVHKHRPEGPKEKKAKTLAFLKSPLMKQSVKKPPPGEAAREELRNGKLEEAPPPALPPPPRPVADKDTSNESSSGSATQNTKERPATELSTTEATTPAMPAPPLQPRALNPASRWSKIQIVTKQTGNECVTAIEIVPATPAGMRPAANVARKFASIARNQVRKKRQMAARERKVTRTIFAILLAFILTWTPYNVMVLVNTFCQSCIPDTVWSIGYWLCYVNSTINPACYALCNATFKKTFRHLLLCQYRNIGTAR

[32] = biological target: Sigma non-opioid intracellular receptor 1 (Homo sapiens) (UniProt Q99720); conditions: Compound concentration 10.0 uM

Mitogen-activated protein kinase kinase kinase kinase 3 (Homo sapiens), sequence (Q8IVH8 whole entry): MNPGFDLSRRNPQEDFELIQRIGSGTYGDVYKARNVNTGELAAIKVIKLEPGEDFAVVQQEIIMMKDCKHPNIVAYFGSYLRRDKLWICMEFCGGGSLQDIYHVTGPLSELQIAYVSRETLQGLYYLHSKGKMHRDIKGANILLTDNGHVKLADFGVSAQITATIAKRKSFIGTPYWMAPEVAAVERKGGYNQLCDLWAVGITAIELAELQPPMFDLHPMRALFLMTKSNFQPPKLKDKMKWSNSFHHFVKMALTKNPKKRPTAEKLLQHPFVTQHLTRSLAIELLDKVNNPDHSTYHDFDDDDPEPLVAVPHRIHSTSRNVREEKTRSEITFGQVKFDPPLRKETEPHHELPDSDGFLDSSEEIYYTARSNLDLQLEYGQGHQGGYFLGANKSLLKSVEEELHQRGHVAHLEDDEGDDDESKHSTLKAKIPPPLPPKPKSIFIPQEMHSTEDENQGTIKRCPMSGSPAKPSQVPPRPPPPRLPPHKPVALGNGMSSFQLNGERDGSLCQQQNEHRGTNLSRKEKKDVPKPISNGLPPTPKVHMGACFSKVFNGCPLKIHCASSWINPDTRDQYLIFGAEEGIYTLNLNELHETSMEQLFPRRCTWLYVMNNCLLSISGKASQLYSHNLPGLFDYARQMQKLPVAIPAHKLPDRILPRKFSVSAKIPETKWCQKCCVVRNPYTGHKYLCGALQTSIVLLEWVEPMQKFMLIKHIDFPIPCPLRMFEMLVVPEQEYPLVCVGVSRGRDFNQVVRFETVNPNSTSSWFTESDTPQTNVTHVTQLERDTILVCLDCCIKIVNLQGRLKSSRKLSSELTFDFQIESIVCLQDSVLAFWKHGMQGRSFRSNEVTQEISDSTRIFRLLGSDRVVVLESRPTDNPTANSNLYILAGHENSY
Serine/threonine-protein kinase haspin (Homo sapiens), sequence (Q8TF76 whole entry): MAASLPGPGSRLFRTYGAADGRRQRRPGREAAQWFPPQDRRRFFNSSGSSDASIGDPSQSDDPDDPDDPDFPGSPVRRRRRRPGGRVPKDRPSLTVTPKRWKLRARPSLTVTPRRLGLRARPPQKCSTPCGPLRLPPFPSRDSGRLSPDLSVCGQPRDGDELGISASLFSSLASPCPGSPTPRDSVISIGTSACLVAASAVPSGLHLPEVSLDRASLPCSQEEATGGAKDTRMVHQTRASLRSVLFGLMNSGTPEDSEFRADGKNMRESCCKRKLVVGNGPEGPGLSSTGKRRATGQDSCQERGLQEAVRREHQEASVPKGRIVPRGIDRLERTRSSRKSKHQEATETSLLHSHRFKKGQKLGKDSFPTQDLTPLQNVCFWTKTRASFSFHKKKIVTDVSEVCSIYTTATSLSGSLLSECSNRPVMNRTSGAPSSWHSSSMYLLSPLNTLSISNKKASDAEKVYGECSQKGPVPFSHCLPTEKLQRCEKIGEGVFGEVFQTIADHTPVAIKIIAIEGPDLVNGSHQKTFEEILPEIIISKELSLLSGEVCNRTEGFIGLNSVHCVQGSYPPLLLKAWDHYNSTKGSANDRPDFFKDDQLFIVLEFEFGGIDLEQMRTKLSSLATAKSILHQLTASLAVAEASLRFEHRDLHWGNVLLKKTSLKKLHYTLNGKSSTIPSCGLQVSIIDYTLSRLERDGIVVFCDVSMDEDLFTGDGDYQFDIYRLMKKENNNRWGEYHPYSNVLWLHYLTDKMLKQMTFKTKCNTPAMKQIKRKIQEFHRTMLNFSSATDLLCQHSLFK
Serine/threonine-protein kinase ULK3 (Homo sapiens), sequence (Q6PHR2 whole entry): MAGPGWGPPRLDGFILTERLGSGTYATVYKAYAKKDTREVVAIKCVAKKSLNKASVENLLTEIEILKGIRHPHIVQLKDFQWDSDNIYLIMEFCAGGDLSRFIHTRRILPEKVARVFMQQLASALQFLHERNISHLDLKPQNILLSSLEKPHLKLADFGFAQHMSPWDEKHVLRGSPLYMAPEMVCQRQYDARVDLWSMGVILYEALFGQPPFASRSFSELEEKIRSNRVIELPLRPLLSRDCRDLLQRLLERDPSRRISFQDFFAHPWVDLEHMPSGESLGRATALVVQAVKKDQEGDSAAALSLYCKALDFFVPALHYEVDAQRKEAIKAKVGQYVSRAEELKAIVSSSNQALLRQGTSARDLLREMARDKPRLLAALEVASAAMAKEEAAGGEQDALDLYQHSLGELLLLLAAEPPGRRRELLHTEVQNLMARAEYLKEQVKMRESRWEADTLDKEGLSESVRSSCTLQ
Serine/threonine-protein kinase Nek10 (Homo sapiens), sequence (Q6ZWH5 whole entry): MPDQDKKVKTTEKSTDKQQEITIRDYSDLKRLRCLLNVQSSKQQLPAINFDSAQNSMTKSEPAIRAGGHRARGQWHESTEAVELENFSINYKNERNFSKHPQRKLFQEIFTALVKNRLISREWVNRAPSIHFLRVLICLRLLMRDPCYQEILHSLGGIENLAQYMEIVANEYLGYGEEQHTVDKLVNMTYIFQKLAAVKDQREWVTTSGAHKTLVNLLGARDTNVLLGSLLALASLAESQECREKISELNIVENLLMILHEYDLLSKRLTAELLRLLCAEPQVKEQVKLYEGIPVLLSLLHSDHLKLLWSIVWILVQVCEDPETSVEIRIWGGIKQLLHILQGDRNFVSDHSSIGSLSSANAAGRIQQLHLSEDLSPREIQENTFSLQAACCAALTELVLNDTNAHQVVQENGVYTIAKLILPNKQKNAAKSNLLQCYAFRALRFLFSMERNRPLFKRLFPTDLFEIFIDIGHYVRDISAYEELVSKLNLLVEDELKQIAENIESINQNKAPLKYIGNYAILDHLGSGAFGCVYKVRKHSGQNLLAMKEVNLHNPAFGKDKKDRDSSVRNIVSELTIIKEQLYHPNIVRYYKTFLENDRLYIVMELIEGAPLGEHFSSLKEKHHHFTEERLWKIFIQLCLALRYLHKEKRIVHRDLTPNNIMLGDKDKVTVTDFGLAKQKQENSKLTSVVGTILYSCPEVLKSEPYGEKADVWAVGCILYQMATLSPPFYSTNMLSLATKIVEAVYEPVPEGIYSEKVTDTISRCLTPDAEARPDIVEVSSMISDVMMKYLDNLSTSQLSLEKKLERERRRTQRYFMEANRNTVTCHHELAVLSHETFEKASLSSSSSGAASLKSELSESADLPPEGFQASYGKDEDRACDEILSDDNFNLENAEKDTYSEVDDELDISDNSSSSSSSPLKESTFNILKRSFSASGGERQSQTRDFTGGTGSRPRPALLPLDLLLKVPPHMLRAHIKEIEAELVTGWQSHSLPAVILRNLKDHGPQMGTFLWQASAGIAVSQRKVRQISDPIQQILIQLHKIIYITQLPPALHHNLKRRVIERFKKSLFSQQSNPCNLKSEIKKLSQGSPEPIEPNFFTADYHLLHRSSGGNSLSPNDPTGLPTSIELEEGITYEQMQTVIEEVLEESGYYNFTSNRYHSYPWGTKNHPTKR
Serine/threonine-protein kinase B-raf (Homo sapiens), sequence (P15056 whole entry): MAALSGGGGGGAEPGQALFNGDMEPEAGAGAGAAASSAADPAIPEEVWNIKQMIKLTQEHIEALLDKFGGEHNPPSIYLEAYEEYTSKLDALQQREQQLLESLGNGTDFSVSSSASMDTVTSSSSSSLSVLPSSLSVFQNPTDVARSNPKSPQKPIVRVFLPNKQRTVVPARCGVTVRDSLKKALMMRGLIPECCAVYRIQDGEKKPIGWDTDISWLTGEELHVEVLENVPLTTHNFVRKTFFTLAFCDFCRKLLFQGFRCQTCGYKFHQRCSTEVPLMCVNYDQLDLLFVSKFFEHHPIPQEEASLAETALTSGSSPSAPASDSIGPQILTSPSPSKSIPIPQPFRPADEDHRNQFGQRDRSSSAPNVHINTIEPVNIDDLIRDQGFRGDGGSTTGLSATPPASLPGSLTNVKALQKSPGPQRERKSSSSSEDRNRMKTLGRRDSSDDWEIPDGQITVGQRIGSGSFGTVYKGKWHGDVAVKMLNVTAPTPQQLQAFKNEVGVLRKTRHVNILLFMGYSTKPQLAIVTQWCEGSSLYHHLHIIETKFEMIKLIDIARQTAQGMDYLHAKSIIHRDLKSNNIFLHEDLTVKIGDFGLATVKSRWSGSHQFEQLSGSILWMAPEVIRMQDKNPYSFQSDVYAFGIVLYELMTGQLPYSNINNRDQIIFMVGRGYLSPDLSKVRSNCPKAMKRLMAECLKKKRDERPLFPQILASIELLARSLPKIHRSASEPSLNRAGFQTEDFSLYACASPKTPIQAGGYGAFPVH
Tyrosine-protein kinase CSK (Homo sapiens), sequence (P41240 2-450 limits assumed): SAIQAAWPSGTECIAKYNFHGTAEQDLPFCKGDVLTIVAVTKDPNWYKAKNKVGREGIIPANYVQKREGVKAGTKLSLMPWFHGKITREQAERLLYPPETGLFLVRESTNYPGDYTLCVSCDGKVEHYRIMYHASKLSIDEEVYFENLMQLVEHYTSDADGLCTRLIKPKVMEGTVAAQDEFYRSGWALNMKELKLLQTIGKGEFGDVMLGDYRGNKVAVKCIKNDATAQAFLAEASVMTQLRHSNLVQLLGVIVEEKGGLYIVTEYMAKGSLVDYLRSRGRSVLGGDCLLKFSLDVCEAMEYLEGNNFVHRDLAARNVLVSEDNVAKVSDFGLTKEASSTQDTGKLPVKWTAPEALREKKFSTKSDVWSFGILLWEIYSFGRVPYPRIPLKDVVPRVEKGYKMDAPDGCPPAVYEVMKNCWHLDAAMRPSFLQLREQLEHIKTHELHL
cAMP-dependent protein kinase catalytic subunit PRKX (Homo sapiens), sequence (P51817 whole entry): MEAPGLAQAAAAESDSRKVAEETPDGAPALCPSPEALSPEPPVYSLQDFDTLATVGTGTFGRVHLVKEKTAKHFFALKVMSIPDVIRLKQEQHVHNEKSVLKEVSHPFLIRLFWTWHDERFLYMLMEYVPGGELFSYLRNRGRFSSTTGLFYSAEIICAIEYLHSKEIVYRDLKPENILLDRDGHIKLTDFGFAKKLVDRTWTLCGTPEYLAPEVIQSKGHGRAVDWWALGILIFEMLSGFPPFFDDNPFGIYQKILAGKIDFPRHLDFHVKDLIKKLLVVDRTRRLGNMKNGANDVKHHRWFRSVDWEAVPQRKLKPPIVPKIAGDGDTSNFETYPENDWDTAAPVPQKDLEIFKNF

CC(C)CC(=O)N1CCc2nc(-c3ccc(Br)cc3)nc(N(C)Cc3ccccc3)c2C1 [THPP-1-NC]
inactive: residual activity [1] 100% | residual activity [2] 100% | residual activity [3] 89% | residual activity [4] 100% | residual activity [5] 100% | residual activity [6] 100% | residual activity [7] 88% | residual activity [8] 100% | residual activity [9] 98% | residual activity [10] 95% | residual activity [11] 100% | residual activity [12] 100% | residual activity [13] 100% | residual activity [14] 100% | residual activity [15] 100% | residual activity [16] 100% | residual activity [17] 53% | residual activity [18] 97% | residual activity [19] 100% | residual activity [20] 89% | residual activity [21] 100% | residual activity [22] 100% | residual activity [23] 100% | residual activity [24] 79% | residual activity [25] 75% | residual activity [26] 100% | residual activity [27] 100% | residual activity [28] 89% | residual activity [29] 77% | inhibition [30] -6.28% | inhibition [31] 3.58% | inhibition [32] 49.4%

COCCOc1nc(-c2ccc(Cl)nc2)nc2c1CN(C(=O)c1ncn3ccccc13)CC2 [THPP-1]
inactive: residual activity [1] 100% | residual activity [2] 100% | residual activity [3] 96% | residual activity [4] 100% | residual activity [5] 100% | residual activity [6] 100% | residual activity [7] 89% | residual activity [8] 100% | residual activity [9] 93% | residual activity [10] 100% | residual activity [11] 100% | residual activity [12] 100% | residual activity [13] 100% | residual activity [14] 100% | residual activity [15] 100% | residual activity [16] 100% | residual activity [17] 88% | residual activity [18] 87% | residual activity [19] 100% | residual activity [20] 82% | residual activity [21] 100% | residual activity [22] 100% | residual activity [23] 95% | residual activity [24] 66% | residual activity [25] 68% | residual activity [26] 100% | residual activity [27] 100% | residual activity [28] 81% | residual activity [29] 91% | inhibition [30] 13.3% | inhibition [31] 2% | inhibition [32] 38.1%
